The record followed here is publication doi:10.1101/2022.04.11.487889v1 (biorxiv, 2022).

One may read the IC50 as the point on the concentration scale where inhibition reaches its midpoint.

In this experiment the target is T1, recombinant human PRDX6 (peroxiredoxin 6) (Homo sapiens, UniProt P30041).
T1 sequence (P30041 1-224): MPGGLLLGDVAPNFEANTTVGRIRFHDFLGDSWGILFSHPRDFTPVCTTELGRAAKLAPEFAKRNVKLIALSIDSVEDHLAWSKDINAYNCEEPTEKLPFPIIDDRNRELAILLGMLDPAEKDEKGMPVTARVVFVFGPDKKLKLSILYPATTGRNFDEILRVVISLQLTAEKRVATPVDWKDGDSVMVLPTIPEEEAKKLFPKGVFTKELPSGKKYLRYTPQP
The experiment can be described thus: radioactive PLA2 assay, […]-DPPC liposomes, scintillation counting. In kind it is biochemical.

In the case of `CCN(CC)CCN(Cc1ccc(-c2ccc(C(F)(F)F)cc2)cc1)C(=O)Cn1c(SCc2ccc(F)cc2)nc(=O)c2c1CCC2` [Darapladib], the IC50 is approximately 500 nM.
